From patent US12679903B2, “Antibody for specifically binding to lysyl-tRNA synthetase N-terminal domain exposed to extracellular membrane” (Zymedi Co., Ltd., priority 2018, dated 2026)

Experiments:
Assay type in all cases: in vivo, SD rats
[1] = tested on: pulmonary arterial hypertension (PAH) models; assay: PAH model, echocardiography; conditions: MCT PAH rats
Text: (§1) To induce PAH in 7-week-old SD rats (Oriental Bio), 60 mpk of MCT (monocrotaline) were subcutaneously injected. Thereafter, the rats were divided into four groups (tested with five animals in each group), and were administrated with 1mpk of Mock human IgG (Thermo Fisher Scientific, negative control), 1mpk of N3 IgG antibody, 10mpk of N3 IgG antibody, and 25 mpk of sildenafil (positive control) for 3 weeks. All antibodies were i.v. injected twice a week and sildenafil was orally administered every day.

[2] = tested on: pulmonary arterial hypertension (PAH) models; assay: PAH model, blood flow and blood pressure measurement; conditions: MCT + Sildenafil 25 mpk, orally every day, 3 weeks
Text: as §1
After three weeks, the rats were anesthetized with isoflurane, and blood flow and pressure were measured using an MPVS Cardiovascular Pressure and Volume system (model name: MPVS Ultra, manufacturer: Millar Instruments). The right ventricular end-systolic pressure (RVESP), right ventricular end-diastolic pressure, left ventricular end-systolic pressure, left ventricular end-diastolic pressure were measured using an exclusive catheter (Mikro-Tip rat pressure catheter, manufacturer: Millar Instruments). The cardiac output was measured using a perivascular blood flow probe (Transonic Flow probes, manufacturer: […]), and experimental method thereof was performed by the same method as disclosed in the following literature: Pacher P, Nagayama T, Mukhopadhyay P, Batkai S, Kass DA. Measurement of cardiac function using pressure-volume conductance catheter technique in mice and rats. Nat Protoc 2008; 3 (9): 1422-34.

[3] = PAH model, body weight and abnormal signs; conditions: MCT + Sildenafil
Text: as §1

**Q.** Which “D-shaped left ventricle indicating pressure overload in the right ventricle” value [1] does the source give for `CCCc1nn(C)c2c(=O)[nH]c(-c3cc(S(=O)(=O)N4CCN(C)CC4)ccc3OCC)nc12` [Sildenafil, sildenafil] here?
**A.** three animals

**Q.** And the CO [2]?
**A.** 49.6 ± 17.7 mL/min

**Q.** What about the LVEDP [2] of the same compound?
**A.** 3.6 ± 2.3 mmHg

**Q.** And the LVESP [2]?
**A.** 83.2 ± 4.7 mmHg

**Q.** What about the RVEDP [2] of the same compound?
**A.** 2.6 ± 1.3 mmHg

**Q.** And the RVESP [2]?
**A.** 48.4 ± 9.6 mmHg

**Q.** What about the “body weight, Absolute change” value [3] of the same compound?
**A.** 104.1 ± 26.4 g

**Q.** What about the “body weight, Relative change” value [3] of the same compound?
**A.** 49.8 ± 10.5%
